Series [1] is described as follows: Solubility in aqueous solution (pH 2 to 10). The series is classed as physicochemical. An excerpt:
In an embodiment, prodrugs of the present invention are suitable for oral administration. The skilled person understands that the pH of the gastrointestinal tract changes along its length. For example, the stomach has a pH of around pH 1.5 and the GI tract after the stomach has a pH of around 5 to 7.5. For more detail see, for example, Measurement of gastrointestinal pH profiles in normal ambulant human subjects, Gut. 1988 August; 29(8): 1035-1041. Improved solubility is expected to result in improved absorption, and therefore improved oral bioavailability. Thus improved solubility at any pH value between around pH 1.5 to 8 is expected to improve oral bioavailability. Compounds of the invention were assessed for solubility in aqueous solutions having a pH of from 2 to 10. In an embodiment prodrugs of the invention have a solubility of >0.5 mg/mL in an aqueous solution having a pH of from 2 to 10, including from 2 to 8. In an embodiment prodrugs have a solubility of >5.0 mg/mL, or >10.0 mg/mL, >100.0 mg/mL, or >200.0 mg/mL in an aqueous solution having a pH of from 2 to 10, including from 2 to 8. In an embodiment the prodrugs have the aforementioned aqueous solubility at a pH within the range of from 4 to 8, or from 6 to 8.
In an embodiment, prodrugs of the invention are administered intravenously. High prodrug solubility is advantageous in order to reduce the volume of solution administered to the patient, and to reduce the risk of damage to the circulatory system. Solubility in an aqueous solution having a pH of from 2 to 10 of >10 mg/mL is preferred. Yet more preferred is solubility in an aqueous solution having a pH of from 2 to 10 of >30 mg/mL or >100.0 mg/mL. Yet more preferred is solubility in an aqueous solution having a pH of from 2 to 10 of >200.0 mg/mL. The solubility is measured in an aqueous solution having a pH of from 2 to 10, which pH range is advantageous for intravenous prodrug delivery. See, for example, A guide on intravenous drug compatibilities based on their pH, Nasser S C et al./Pharmacie Globale (IJCP) 2010, 5 (01)). In an embodiment the prodrugs of the claimed invention have solubility of >10 mg/mL in an aqueous solution having a pH of from 2 to 10. In an embodiment the prodrugs have the aforementioned aqueous solubility at a pH within the range of from 2 to 8, or from 4 to 8, or from 6 to 8. The solubility of the Examples is illustrated in Table 1.

Series [2] deals with T1, human ether a go-go related gene (hERG) K+ channel (Homo sapiens, UniProt Q12809).
T1 construct: Chinese Hamster Lung cell line stably expressing the full length hERG channel; expressed in transfected cells; host or cells: Chinese Hamster Lung cell line
T1 sequence (Q12809 whole entry): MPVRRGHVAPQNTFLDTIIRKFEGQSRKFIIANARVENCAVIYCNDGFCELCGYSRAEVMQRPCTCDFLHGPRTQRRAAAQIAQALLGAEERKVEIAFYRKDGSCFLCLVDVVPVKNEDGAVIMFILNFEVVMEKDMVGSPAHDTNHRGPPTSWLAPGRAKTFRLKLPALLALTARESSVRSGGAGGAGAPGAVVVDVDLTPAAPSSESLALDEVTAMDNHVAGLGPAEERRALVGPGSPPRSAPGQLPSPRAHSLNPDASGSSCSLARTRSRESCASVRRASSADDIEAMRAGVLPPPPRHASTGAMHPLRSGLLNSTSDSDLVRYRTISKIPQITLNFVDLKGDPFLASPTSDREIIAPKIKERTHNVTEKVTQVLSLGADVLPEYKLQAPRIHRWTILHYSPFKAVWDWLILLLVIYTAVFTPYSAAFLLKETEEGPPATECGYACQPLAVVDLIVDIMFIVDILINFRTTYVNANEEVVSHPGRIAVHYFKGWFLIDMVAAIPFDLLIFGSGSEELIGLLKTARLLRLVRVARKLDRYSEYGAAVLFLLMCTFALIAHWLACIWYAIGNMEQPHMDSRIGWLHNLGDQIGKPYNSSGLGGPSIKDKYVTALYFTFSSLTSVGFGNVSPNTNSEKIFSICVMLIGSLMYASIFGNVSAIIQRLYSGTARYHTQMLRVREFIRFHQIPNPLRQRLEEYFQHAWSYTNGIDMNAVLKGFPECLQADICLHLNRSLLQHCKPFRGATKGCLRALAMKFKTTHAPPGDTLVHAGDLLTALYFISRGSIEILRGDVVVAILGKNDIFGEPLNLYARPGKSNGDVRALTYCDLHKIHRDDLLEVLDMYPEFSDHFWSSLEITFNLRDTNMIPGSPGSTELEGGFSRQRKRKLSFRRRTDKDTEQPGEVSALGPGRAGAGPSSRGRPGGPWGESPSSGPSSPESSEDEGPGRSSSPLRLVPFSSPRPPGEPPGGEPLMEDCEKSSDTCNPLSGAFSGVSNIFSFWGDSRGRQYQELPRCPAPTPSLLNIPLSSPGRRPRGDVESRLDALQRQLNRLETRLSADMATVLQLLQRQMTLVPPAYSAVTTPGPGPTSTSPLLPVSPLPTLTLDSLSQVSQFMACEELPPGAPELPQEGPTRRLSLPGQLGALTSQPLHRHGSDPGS
Briefly: hERG assay, IonWorks patch clamp electrophysiology. It is filed as cell-based. The note with it: Chinese Hamster Lung cell line stably expressing hERG; maximum assay concentration 33 uM. The method, then: Compounds of the invention were tested for inhibition of the human ether a go-go related gene (hERG) K^+ channel using IonWorks patch clamp electrophysiology. 8 Point concentration-response curves were generated on two occasions using 3-fold serial dilutions from the maximum assay concentration (33 uM). Electrophysiological recordings were made from a Chinese Hamster Lung cell line stably expressing the full length hERG channel. Single cell ion currents were measured in the perforated patch clamp configuration (100 ug/mL amphoterocin) at room temperature using an IonWorks Quattro instrument. The internal solution contained 140 mM KCl, 1 mM MgCl2, 1 mM EGTA and 20 mM HEPES and was buffered to pH 7.3. The external solution contained 138 mM NaCl, 2.7 mM KCl, 0.9 mM CaCl2, 0.5 mM MgCl2, 8 mM Na2HPO4 and 1.5 mM KH2PO4, and was buffered to pH 7.3. Cells were clamped at a holding potential of […] for 30 s and then stepped to +40 mV for 1 s. This was followed by a hyperpolarising step of 1 s to […] to evoke the hERG tail current. This sequence was repeated 5 times at a frequency of 0.25 Hz. Currents were measured from the tail step at the 5th pulse, and referenced to the holding current. Compounds were incubated for 6-7 min prior to a second measurement of the hERG signal using an identical pulse train. A minimum of 17 cells were required for each pIC50 curve fit. […]
On the technique in general: hERG is a cardiac potassium channel; its block is linked to QT prolongation.

Each structure is given as a SMILES string. Structures can show the parent of a compound that is named as a salt.

In general, solubility refers to the concentration that dissolves in the medium under given conditions. Higher therefore signals a readily soluble substance. Usually IC50 stands for the concentration at which inhibition is half-maximal. Read a high IC50 as lower potency.

In the case of `CC(=O)c1ccc2c(c1)[C@H](NC(=O)c1ccc(F)c(Cl)c1)[C@H](OP(=O)(O)O)C(C)(C)O2` [Example 1, {[(3S,4S)-6-Acetyl-4-[(3-chloro-4-fluorobenzene)amido]-2,2-dimethyl-3,4-dihydro-2H-1-benzopyran-3-yl]oxy}phosphonic acid], in series [1] (pH 5.7, aqueous buffer), the solubility is greater than 50000 µg/mL. In series [2], this compound had an IC50 greater than 11 µM.

In turn, `CC(=O)c1ccc2c(c1)[C@H](NC(=O)c1ccc(F)c(Cl)c1)[C@H](OC(=O)CN(C)C)C(C)(C)O2` [Example 2, (3S,4S)-6-Acetyl-4-[(3-chloro-4-fluorobenzene)amido]-2,2-dimethyl-3,4-dihydro-2H-1-benzopyran-3-yl 2-(dimethylamino)acetate hydrochloride] had a solubility in series [1] (pH 3.6, aqueous buffer) greater than 20000 µg/mL.

As for `CC(=O)c1ccc2c(c1)[C@H](NC(=O)c1ccc(F)c(Cl)c1)[C@H](OC(=O)CN)C(C)(C)O2` [Example 6, (3S,4S)-6-Acetyl-4-[(3-chloro-4-fluorobenzene)amido]-2,2-di methyl-3,4-dihydro-2H-1-benzopyran-3-yl 2-aminoacetate hydrochloride], the solubility in series [1] (aqueous buffer, pH 4.0) was greater than 20000 µg/mL.

As to `CC(=O)c1ccc2c(c1)[C@H](NC(=O)c1ccc(F)c(Cl)c1)[C@H](OCOP(=O)(O)O)C(C)(C)O2` [Example 8, ({[(3S,4S)-6-Acetyl-4-[(3-chloro-4-fluorobenzene)amido]-2,2-dimethyl-3,4-dihydro-2H-1-benzopyran-3-yl]oxy}methoxy)phosphonic acid diamine], the solubility in series [1] (pH 5.7, aqueous buffer) is greater than 200000 µg/mL.

Turning to `CCCNCC(=O)O[C@H]1[C@@H](NC(=O)c2ccc(F)c(Cl)c2)c2cc(C(C)=O)ccc2OC1(C)C.Cl` [Example 10, (3S,4S)-6-Acetyl-4-[(3-chloro-4-fluorobenzene)amido]-2,2-di methyl-3,4-dihydro-2H-1-benzopyran-3-yl 2-(propylamino)acetate hydrochloride], in series [1] (pH 4.4, aqueous buffer), the solubility was greater than 10000 µg/mL.

`CC(=O)c1ccc2c(c1)[C@H](NC(=O)c1ccc(F)c(Cl)c1)[C@H](OCOC(=O)CN(C)C)C(C)(C)O2` [Example 5, {[(3S,4S)-6-Acetyl-4-[(3-chloro-4-fluorobenzene)amido]-2,2-dimethyl-3,4-dihydro-2H-1-benzopyran-3-yl]oxy}methyl 2-(dimethylamino)acetate] showed a solubility in series [1] (aqueous buffer, pH 3.0) greater than 2000 µg/mL.

`CC(=O)c1ccc2c(c1)[C@H](NC(=O)c1ccc(F)c(Cl)c1)[C@H](OC(=O)[C@@H](N)CC(C)C)C(C)(C)O2.Cl` [Example 9, (3S,4S)-6-Acetyl-4-[(3-chloro-4-fluorobenzene)amido]-2,2-di methyl-3,4-dihydro-2H-1-benzopyran-3-yl(2S)-2-amino-4-methylpentanoate hydrochloride]: the solubility in series [1] (pH 2.7, aqueous buffer) was greater than 5000 µg/mL.

For the compound `CNCC(=O)O[C@H]1[C@@H](NC(=O)c2ccc(F)c(Cl)c2)c2cc(C(C)=O)ccc2OC1(C)C` [Example 7, (3S,4S)-6-acetyl-4-[(3-chloro-4-fluorobenzene)amido]-2,2-di methyl-3,4-dihydro-2H-1-benzopyran-3-yl 2-(methylamino)acetate hydrochloride], the solubility in series [1] (pH 4.4, aqueous buffer) was greater than 20000 µg/mL.

The compound `CC(=O)O[C@H]1[C@@H](NC(=O)c2ccc(F)c(Cl)c2)c2cc(C(C)=O)ccc2OC1(C)C` [Example 3, (3S,4S)-6-Acetyl-4-[(3-chloro-4-fluorobenzene)amido]-2,2-dimethyl-3,4-dihydro-2H-1-benzopyran-3-yl acetate] gave a solubility in series [1] (pH 3.5, aqueous buffer) of less than 250 µg/mL.

In the case of `CC(=O)OCO[C@H]1[C@@H](NC(=O)c2ccc(F)c(Cl)c2)c2cc(C(C)=O)ccc2OC1(C)C` [Example 4, {[(3S,4S)-6-Acetyl-4-[(3-chloro-4-fluorobenzene)amido]-2,2-dimethyl-3,4-dihydro-2H-1-benzopyran-3-yl]oxy}methyl acetate], the solubility in series [1] (pH 3.5, aqueous buffer) was less than 250 µg/mL.

Compound `CC(=O)c1ccc2c(c1)[C@H](NC(=O)c1ccc(F)c(Cl)c1)[C@H](OC(=O)CNC(C)C)C(C)(C)O2.Cl` [Example 11, (3S,4S)-6-Acetyl-4-[(3-chloro-4-fluorobenzene)amido]-2,2-di methyl-3,4-dihydro-2H-1-benzopyran-3-yl 2-[(propan-2-yl)amino]acetate hydrochloride] showed a solubility in series [1] (pH 4.2, aqueous buffer) greater than 10000 µg/mL.

The values above are taken from patent US9499510B2, “Pro-drug compounds” (Proximagen Limited, priority 2012, dated 2016).
